The assay concerns Phencyclidine (PCP)-induced passive avoidance reaction disorder. Briefly: Phencyclidine (PCP)-induced passive avoidance reaction disorder in rats. The class given is in vivo, Wistar male rats. The note with it: 10 mg/kg oral, 30 min before PCP 2 mg/kg i.p.; test trial 24 hr after acquisition trial; max 300 seconds; versus vehicle group.

Take `Cc1oc2nc3c(c(NC(=O)CN4CCCC4=O)c2c1C)CCCC3` [compound A, 2-(2-oxopyrrolidin-1-yl)-N-(2,3-dimethyl-5,6,7,8-tetrahydrofuro[2,3-b]quinolin-4-yl)acetamide]: the “latent time of test trial (passive avoidance reaction)” value is reported as “significantly prolonged the latent time shortened by the PCP administration”.

Source of the values: US20060173031A1, “Therapeutic agent for schizophrenia” (MITSUBISHI PHARMA CORPORATION, priority 2003, published 2006).
